In US20250312258A1, “2,3-PYRROLIDINEDIONE CONJUGATES AND METHODS OF USING THEREOF” (North Carolina State University, priority 2022, published 2025):
Values after ≈ are worked out from the molar mass of the structure shown.

What was measured:
[1] = tested on: S. aureus 25923; experiment: Broth microdilution MIC, S. aureus 25923; assay type: cell-based, Staphylococcus aureus; details: Staphylococcus aureus, 25923; read-out: MIC (S. aureus 25923)
[2] = tested on: MRSA 33591; experiment: Broth microdilution MIC, MRSA 33591; assay type: cell-based; details: Staphylococcus aureus, read-out: MIC (MRSA 33591)
[3] = tested on: S. aureus 29213; experiment: Broth microdilution MIC, S. aureus 29213; assay type: cell-based, Staphylococcus aureus; details: Staphylococcus aureus, 29213; read-out: MIC (S. aureus 29213)
[4] = tested on: S. aureus VRS-2; experiment: VRSA thigh infection model in neutropenic mice; assay type: in vivo, mouse; details: 50 mg/kg PO BID q12h, 26 h post-infection, p<0.05
Protocol: (§1) FIG. 8 is a plot comparing the efficacy of linezolid, Compound 4 (AV-0273), and Compound 8 (AV-0267) in the S. aureus VRS-2 thigh infection model, CFU/g thigh. Test animals were rendered neutropenic with cyclophosphamide administration, 150 mg/kg on Day −4 then 100 mg/kg on Day −1 prior to infection on Day 0. On Day 0, animals were intramuscularly inoculated with 8.4×10^4 CFU/mouse (0.1 mL/animal) of the S. aureus VRS-2 strain. The vehicle and the test articles, Compound 4 (AV-0273) and Compound 8 (AV-0267), both at 100 mg/kg, were each intraperitoneally (IP) administered twice with a 12 h interval (BID q12h) at 2 and 14 h after infection. The reference standard, linezolid at 50 mg/kg, was orally (PO) administered BID q12 h starting at 2 h post-infection. Animals were sacrificed at 2 or 26 h post-infection, and the thigh tissues were harvested and weighed from each of the test animals. The bacterial counts (CFU/g thigh) of thigh tissue homogenates were measured.
as §1, with “FIG. 9” for “FIG. 8”, “of linezolid” for “of linezolid,”, “CFU/g thigh, change in bacterial counts relative to baseline count at 26h post-infection. Data represent the change in bacterial counts in thigh tissue following test article treatment relative to the initial 2 h CFU/g thigh or CFU/thigh at the time of dosing (baseline counts).” for “CFU/g thigh.”, “(BID q12 h)” for “(BID q12h)”, “(CFU/g thigh and CFU/thigh)” for “(CFU/g thigh)”, “were compared.” for “were measured.”
Example vancomycin-2,3-pyrrolidinediones conjugates were evaluated using an in vivo tissue infection model with vancomycin resistant MRSA:
Animal model: Murine thigh infection
Bacteria: VRSA (VRS-2). Gram Positive, Staphylococcus aureus (VRSA, VRS-2), Mouse Infected Thigh Model. VRS-2 is VanA producing SCC Mec II st5 train.
Vancomycin conjugates dose: 100 mg/Kg intraperitoneally (IP).
Application: This model assesses the antimicrobial efficacy of test articles in a tissue infection model with vancomycin resistant MRSA. Microbial counts are measured. […]

[5] = tested on: VRSA; experiment: MIC against VRSA (Table 2); assay type: cell-based; details: Staphylococcus aureus, read-out: MIC (VRSA)

Structure (SMILES) | MIC [1] [µg/mL] | MIC [2] [µg/mL] | MIC [3] [µg/mL] | MIC [5] [µg/mL] | reduction in bacterial counts compared to the vehicle control group [4] [%]
CCC1C(c2ccc(C(F)(F)F)cc2)=C(O)C(=O)N1CCCNCCCCNCCCNC (stereo not shown) [Compound 9b] | 0.5 to 1 (≈ 1.06 to 2.13 µM) | 1 (≈ 2.13 µM) | 1 (≈ 2.13 µM) | – | –
CCC1C(c2ccc(C(F)(F)F)cc2)=C(O)C(=O)N1CCN(CCNC)CCN1C(=O)C(O)=C(c2ccc(C(F)(F)F)cc2)C1CC (stereo not shown) [Compound 10] | 16 (≈ 23.9 µM) | 8 (≈ 12 µM) | 8 (≈ 12 µM) | – | –
CC(=O)NC[C@H]1CN(c2ccc(N3CCOCC3)c(F)c2)C(=O)O1 [Linezolid, reference compound] | – | – | – | – | 100
CCC1C(c2ccc(C(F)(F)F)cc2)=C(O)C(=O)N1c1ccc(NC)cc1 (stereo not shown) [Compound 5] | 2 (≈ 5.31 µM) | 1 (≈ 2.66 µM) | 1 (≈ 2.66 µM) | – | –
CCC1C(c2ccc(C(F)(F)F)cc2)=C(O)C(=O)N1CCCCCCNC (stereo not shown) [Compound 3] | 2 (≈ 5.2 µM) | 2 (≈ 5.2 µM) | 2 (≈ 5.2 µM) | – | –

The next lines start with results.

MIC [1] [µg/mL] | MIC [2] [µg/mL] | MIC [3] [µg/mL] | MIC [5] [µg/mL] | Structure (SMILES) | reduction in bacterial counts compared to the vehicle control group [4] [%]
2 (≈ 5.61 µM) | 2 (≈ 5.61 µM) | 1 (≈ 2.81 µM) | – | CCC1C(c2ccc(C(F)(F)F)cc2)=C(O)C(=O)N1CCCCNC (stereo not shown) [Compound 2] | –
1 (≈ 2.69 µM) | – | 1 (≈ 2.69 µM) | – | CCC1C(c2ccc(C(F)(F)F)cc2)=C(O)C(=O)N1CCOCCNC (stereo not shown) [Compound 6] | –
2 (≈ 4.34 µM) | 1 (≈ 2.17 µM) | 1 (≈ 2.17 µM) | 4 (≈ 8.69 µM) | CCC1C(c2ccc(C(F)(F)F)cc2)=C(O)C(=O)N1CCOCCOCCOCCNC (stereo not shown) [Compound 7] | –
